# According to US10851115B2, “Heterocyclic compounds as RSV inhibitors” (Enanta Pharmaceuticals, Inc., priority 2017, dated 2020):
# Test system: Human RSV-A (“Long” strain)
# Assay: RSV in vitro cytoprotection assay in HEp-2 cells (ATPlite readout)
# Type: cell-based
# Conditions: human respiratory syncytial virus, 96 h; HEp-2 cells, 4-day incubation, ATPlite; read-out: Human RSV-A (“Long” strain) EC50
# Description: RSV is a single stranded negative sense RNA virus that causes respiratory tract infections which can be dangerous to infants, the elderly, and immunosuppressed individuals. Currently there is no vaccine, and therapeutic options are both costly and of limited effectiveness. These approved treatments are Ribavirin, and Palivizumab/Synagis (a monoclonal antibody). RSV has two genotypes, A and B, which differ primarily in the structure of the virus' surface “G” attachment protein. Our current primary screen focusses on RSV-A and uses an in vitro cytoprotection assay where compounds are added in 2-fold dilutions to cells which are then subjected to fully replicative viral particles. Cell viability is measured several days later along with separate measurements of compound cytotoxicity. This report focuses on the results of our most recent screening of compounds.
# HEp-2 cells, (originally derived from tumors grown in irradiated-cortisonised weanling rats that had been injected with epidermoid carcinoma tissue from a person's larynx, but later found to be indistinguishable from HeLa cells by PCR DNA analysis), were used for the culturing of genotype A, “Long” strain RSV. Flasks were inoculated with RSV and viral stocks were collected once cytopathic effect (CPE) was greater than 90%. Viral stocks in 25% sucrose media were snap frozen using liquid nitrogen to increase viral stability. Viral stock titers were quantified by tissue culture infectious dose 50% (TCID50) using 8,000 cells per well and 3-fold viral dilutions across a 96-well plate, cultured for 4 days.
# Following extensive parameter testing, the final assay is run as follows: HEp-2 cells are seeded into the inner 60 wells of a 96-well plate at 8,000 cells per well in a volume of 50 μL using Growth Media (DMEM without phenol red, 1% L-Glut, 1% Penn/Strep, 1% nonessential amino acids, 10% FBS). 2-Fold serial dilutions of control and test compounds are added to the wells in duplicate in a total volume of 25 μL. Viral stock is then added to the wells in a volume of 25 μL, bringing the total volume of each well to 100 μL. Each 96-well plate has a control column of 6 wells with cells and virus but no compound (negative control, max CPE), a column with cells but no compound or virus (positive control, minimum CPE), and a column with no cells or virus or compound (background plate/reagent control). The control wells with cells but no virus are given an additional 25 uL of growth media containing an equal quantity of sucrose as those wells receiving the viral stock in order to keep consistent in media and volume conditions. The outer wells of the plate are filled with 125 μL of growth media to act as a thermal and evaporative moat around the test wells. Following a 4-day incubation period, the plates are read using ATPlite (50 uL added per well), which quantifies the amount of ATP (a measure of cell health) present in each well. Assay plates are read using the Envision luminometer. In parallel, cytotoxicity is examined on an additional 96-well plate treated in an identical manner, but substituting the 25 μL of viral stock for 25 μL of growth media. […] EC50 ranges are as follows: A<0.01 μM; B 0.01-0.05 μM; C>0.05 μM.
row,EC50 [nM],Compound
1,< 10,Cc1cnc(N2CC3(CCOCC3)C2)c(C(=O)Nc2ccc(C(=O)N3CCc4cc(NC(=O)c5c(F)cccc5Cl)sc4-c4ncccc43)cc2)c1 [Example 153]
2,< 10,Cc1ccc(C(=O)Nc2ccc(C(=O)N3CCc4c(sc(-c5nc6ccc(F)cc6[nH]5)c4F)-c4ncccc43)cc2)c(N2CC3(CCOCC3)C2)n1 [Example 88]
3,10 to 50,Cc1cnc(N2CC3(CCOCC3)C2)c(C(=O)Nc2ccc(C(=O)N3CCc4cc(-c5nc6ccccc6[nH]5)oc4-c4ncc(F)cc43)cc2)c1 [Example 103]
4,10 to 50,O=C(Nc1ccc(C(=O)N2CCc3cc(-c4nc5ccccc5[nH]4)oc3-c3ncc(F)cc32)cc1)c1cc2c(nc1N1CC3(CCOCC3)C1)CCC2 [Example 108]
5,10 to 50,Cc1cnc(N2CC3(CCOCC3)C2)c(C(=O)Nc2ccc(C(=O)N3CCc4cc(C(=O)Nc5ncccn5)sc4-c4ncccc43)cc2)c1 [Example 14]
6,> 50,Cc1cnc(N2CC3(CCOCC3)C2)c(C(=O)Nc2ccc(C(=O)N3CCc4cc(C(=O)Nc5c(F)cccc5C(F)(F)F)sc4-c4ncc(F)cc43)cc2)c1 [Example 67]
7,10 to 50,Cc1cnc(N2CC3(CCOCC3)C2)c(C(=O)Nc2ccc(C(=O)N3CCc4cc(C(=O)Nc5c(F)cccc5F)sc4-c4nc(C)ccc43)cc2)c1 [Example 138]
8,10 to 50,Cc1cnc(N2CC3(CCOCC3)C2)c(C(=O)Nc2ccc(C(=O)N3CCc4cc(C(=O)Nc5c(Cl)cccc5Cl)oc4-c4ncc(F)cc43)cc2)c1 [Example 100]
9,10 to 50,Cc1ccc(C(=O)Nc2ccc(C(=O)N3CCc4cc(-c5nc6cccc(Cl)c6[nH]5)sc4-c4ncccc43)cc2)c(N2CC3(CCOCC3)C2)n1 [Example 43]
10,< 10,Cc1cnc(N2CC3(CCOCC3)C2)c(C(=O)Nc2ccc(C(=O)N3CCc4cc(C(=O)Nc5c(Cl)cccc5Cl)sc4-c4ncccc43)cc2)c1 [Example 12]
11,10 to 50,Cc1cnc(N2CC3(CCOCC3)C2)c(C(=O)Nc2ccc(C(=O)N3CCc4cc(-c5ccc[nH]c5=O)oc4-c4ncc(F)cc43)cc2)c1 [Example 109]
12,< 10,Cc1cnc(N2CC3(CCOCC3)C2)c(C(=O)Nc2ccc(C(=O)N3CCc4cc(C(=O)Nc5cccc(C)n5)sc4-c4ncccc43)cc2)c1 [Example 23]
13,10 to 50,Cc1cnc(N2CC3COCC3C2)c(C(=O)Nc2ccc(C(=O)N3CCc4cc(-c5nc6ccccc6[nH]5)sc4-c4ncc(F)cc43)cc2)c1 (stereo not drawn) [Example 68]
14,< 10,Cc1cnc(N2CC3(CCOCC3)C2)c(C(=O)Nc2ccc(C(=O)N3CCc4cc(NC(=O)c5c(F)cccc5F)sc4-c4ncccc43)cc2)c1 [Example 151]
15,10 to 50,Cc1cnc(N2CC3(CCOCC3)C2)c(C(=O)Nc2ccc(C(=O)N3CCc4cc(C(=O)Nc5c(F)cccc5C(F)(F)F)oc4-c4ncc(F)cc43)cc2)c1 [Example 102]
16,< 10,Cc1cnc(N2CC3(CCOCC3)C2)c(C(=O)Nc2ccc(C(=O)N3CCc4cc(C(=O)Nc5c(C)cccc5F)sc4-c4ncc(C)cc43)cc2)c1 [Example 134]
17,< 10,Cc1ccc(C(=O)Nc2ccc(C(=O)N3CCc4cc(-c5nc6ccccc6[nH]5)sc4-c4ncccc43)cc2)c(N2CC3(CCOCC3)C2)n1 [Example 42]
18,< 10,Cc1cnc(N2CC3(CCOCC3)C2)c(C(=O)Nc2ccc(C(=O)N3CCc4cc(C(=O)Nc5ncccc5F)sc4-c4ncccc43)cc2)c1 [Example 15]
19,10 to 50,Cc1cnc(N2CC3(CCOCC3)C2)c(C(=O)Nc2ccc(C(=O)N3CCc4cc(C(=O)Nc5c(F)cccc5Cl)oc4-c4ncccc43)cc2)c1 [Example 117]
20,< 10,Cc1ccc(C(=O)Nc2ccc(C(=O)N3CCc4cc(C(=O)Nc5c(C)cccc5F)sc4-c4ncccc43)cc2)c(N2CC3(CCOCC3)C2)n1 [Example 41]
21,< 10,Cc1cnc(N2CC3(CCOCC3)C2)c(C(=O)Nc2ccc(C(=O)N3CCc4c(sc(C(=O)Nc5c(C)cccc5C#N)c4F)-c4ncccc43)cc2)c1 [Example 75]
22,< 10,Cc1cnc(N2CC3(CCOCC3)C2)c(C(=O)Nc2ccc(C(=O)N3CCc4cc(C(=O)Nc5c(F)cccc5Cl)sc4-c4ncc(C)cc43)cc2)c1 [Example 136]
23,> 50,Cc1ccc2c(n1)-c1sc(C(=O)Nc3c(F)cccc3Cl)cc1CCN2C(=O)c1ccc(NC(=O)c2ccc(C)nc2N2CC3(CCOCC3)C2)cc1 [Example 148]

row,EC50 [nM],Compound
1,< 10,Cc1cnc(N2CC3(CCOCC3)C2)c(C(=O)Nc2ccc(C(=O)N3CCc4cc(C(=O)Nc5ccncc5C)sc4-c4ncccc43)cc2)c1 [Example 34]
2,< 10,Cc1cnc(N2CC3(CCOCC3)C2)c(C(=O)Nc2ccc(C(=O)N3CCc4cc(C(=O)NC5CCOCC5)sc4-c4ncccc43)cc2)c1 [Example 27]
3,10 to 50,Cc1cnc(N2CC3(CCOCC3)C2)c(C(=O)Nc2ccc(C(=O)N3CCc4cc(C(=O)NCc5cccnc5)sc4-c4ncccc43)cc2)c1 [Example 36]
4,< 10,Cc1cnc(N2CC3(CCOCC3)C2)c(C(=O)Nc2ccc(C(=O)N3CCc4cc(C(=O)Nc5c(F)cccc5F)oc4-c4ncc(F)cc43)cc2)c1 [Example 99]
5,< 10,Cc1cnc(N2CC3(CCOCC3)C2)c(C(=O)Nc2ccc(C(=O)N3CCc4cc(C(=O)Nc5cccnn5)sc4-c4ncccc43)cc2)c1 [Example 31]
6,> 50,O=C(Nc1ccc(C(=O)N2CCc3cc(-c4nc5ccccc5[nH]4)sc3-c3ccncc32)cc1)c1cccnc1N1CC2(CCOCC2)C1 [Example 3]
7,< 10,O=C(Nc1c(F)cccc1Cl)c1cc2c(o1)-c1ncc(F)cc1N(C(=O)c1ccc(NC(=O)c3cc4c(nc3N3CC5(CCOCC5)C3)CCC4)cc1)CC2 [Example 106]
8,< 10,Cc1cnc2c(c1)N(C(=O)c1ccc(NC(=O)c3cccnc3N3CC4(CCOCC4)C3)cc1)CCc1cc(C(=O)Nc3c(F)cccc3F)sc1-2 [Example 164]
9,< 10,O=C(Nc1c(F)cccc1F)c1cc2c(s1)-c1ncccc1N(C(=O)c1ccc(NC(=O)c3cccnc3N3CC4(CCOCC4)C3)cc1)CC2 [Example 4]
10,> 50,Cc1cnc(N2CC3(CCOCC3)C2)c(C(=O)Nc2ccc(C(=O)N3CCc4cc(C(=O)Nc5c(F)cccc5C(F)(F)F)sc4-c4nc(C)ccc43)cc2)c1 [Example 143]
11,< 10,Cc1cnc(N2CC3(CCOCC3)C2)c(C(=O)Nc2ccc(C(=O)N3CCc4cc(C(=O)Nc5ccncc5)sc4-c4ncccc43)cc2)c1 [Example 21]
12,< 10,Cc1cnc(N2CC3(CCOCC3)C2)c(C(=O)Nc2ccc(C(=O)N3CCc4cc(NC(=O)c5c(C)cccc5F)sc4-c4ncccc43)cc2)c1 [Example 152]
13,10 to 50,Cc1ccc2c(n1)-c1sc(C(=O)Nc3ncccc3F)cc1CCN2C(=O)c1ccc(NC(=O)c2ccc(C)nc2N2CC3(CCOCC3)C2)cc1 [Example 146]
14,< 10,O=C(Nc1c(F)cccc1Cl)c1cc2c(s1)-c1ncccc1N(C(=O)c1ccc(NC(=O)c3cccnc3N3CC4(CCOCC4)C3)cc1)CC2 [Example 5]
15,> 50,Cc1cnc(N2CC3(CCOCC3)C2)c(C(=O)Nc2ccc(C(=O)N3CCc4cc(C(=O)Nc5c(C)cccc5F)oc4-c4ccncc43)cc2)c1 [Example 123]
16,10 to 50,Cc1ccc(C(=O)Nc2ccc(C(=O)N3CCc4cc(NC(=O)c5c(F)cccc5Cl)sc4-c4ncccc43)cc2)c(N2CC3(CCOCC3)C2)n1 [Example 159]
17,10 to 50,Cc1cnc(N2CCC3(CC2)COC3)c(C(=O)Nc2ccc(C(=O)N3CCc4cc(C(=O)Nc5ncccc5F)sc4-c4ncccc43)cc2)c1 [Example 95]
18,10 to 50,Cc1cnc(N2CC3(CCOCC3)C2)c(C(=O)Nc2ccc(C(=O)N3CCc4cc(C(=O)Nc5ncco5)sc4-c4ncccc43)cc2)c1 [Example 30]
19,10 to 50,Cc1cnc(N2CC3(CCOCC3)C2)c(C(=O)Nc2ccc(C(=O)N3CCc4cc(C(=O)Nc5c(F)cccc5F)oc4-c4ncccc43)cc2)c1 [Example 115]
20,< 10,O=C(Nc1c(F)cccc1C(F)(F)F)c1cc2c(s1)-c1ncc(F)cc1N(C(=O)c1ccc(NC(=O)c3cccnc3N3CC4(CCOCC4)C3)cc1)CC2 [Example 62]
21,> 50,Cc1cnc(N2CC3(CCOCC3)C2)c(C(=O)Nc2ccc(C(=O)N3CCc4cc(C(=O)Nc5c(Cl)cccc5Cl)sc4-c4cc(C)sc43)cc2)c1 [Example 130]
22,< 10,Cc1cnc(N2CC3(CCOCC3)C2)c(C(=O)Nc2ccc(C(=O)N3CCc4cc(C(=O)Nc5c(C)cccc5C#N)sc4-c4ncccc43)cc2)c1 [Example 8]
